The target of series [1] is CutC from Proteus mirabilis (Proteus mirabilis, UniProt B4EYG1). The experiment in a line: Cell-based assay for TMA production from a native producer (P. mirabilis). To be noted: d9-TMA from 1 mM d9-choline, 5 h, 37° C.; value 10 given when no fit or % TMA remaining at 10 μM higher than 15%; read-out: Average IC50 Whole cell P. mirabilis. The method in brief: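 Overnight anaerobic cultures of P. mirabilis or C. sporogenes, grown in BHI with 1 mM choline, were diluted and given 1 mM (trimethyl-d9)-choline plus compound at 10 μM final. After 5 h at 37° C., d9-TMA was quantified by LCMS.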

For series [2], the system named is enzymatic activity in fecal matter. The series can be described thus: Inhibition of enzymatic activity in fecal matter. The series is classed as cell-based. The settings on record: d9-choline 1 mM, 16 hours at 37° C., anaerobic, d9-TMA by LCMS. The protocol:
Inhibition of enzymatic activity in fecal matter was determined by adding a substrate (d9-choline, 1 mM final concentration) and a compound in a range of concentrations in order to determine an IC50. After incubation for a designated 16 hours at 37° C. in anaerobic conditions, samples were be prepared for LCMS analysis, and the amount of d9-TMA produced was determined using LCMS analysis as in the Examples above.

The nature of another series: in vivo. On the set-up: species or system Sprague-Dawley rats. The settings on record: Sprague-Dawley, rat. The method, then: Sprague-Dawley rats (three rats per compound) were treated with a single intravenous (IV) 1 mg/kg dose or orally (PO) a single 10 mg/kg dose. Plasma concentrations of the conjugates were determined by LCMS at 5 minutes, 15 minutes, 30 minutes, 1 hour, 2 hours, 4 hours, 8 and 24 hours post compound administration. […] In addition, the plasma exposure and bioavailability of the active agent of was lower when dosed as a conjugate instead of the active agent alone.

Series [3] is described as follows: Pharmacokinetic study of colon contents and plasma after oral dose of conjugate. In kind it is in vivo, male C57B3L/6 mice. To be noted: male, C57B3L/6, mouse, in vivo, po. The protocol: To confirm that the active agent component of the conjugate is released in the gastrointestinal tract, a pharmacokinetic study was conducted in male C57B3L/6 mice examining conjugate and active agent of concentrations in both the colon contents and plasma after oral dose of conjugate. Conjugate and active agent of were quantified by LCMS at 0 (pre-dose), 0.25, 0.5, 1, 2, 4, 6, 8, 12, and 24 hours post-dose of compound.

The nature of series [4]: Caco-2 permeability assay. The series is classed as in vitro ADME. To be noted: human, Caco-2, pH 7.4. The protocol:
Preparation of Caco-2 Cells: 50 μL and 25 mL of cell culture medium were added to each well of the Transwell insert and reservoir, respectively. The HTS transwell plates were incubated at 37° C., 5% CO2 for 1 hour before cell seeding. […] Cell culture medium was replaced every other day, beginning no later than 24 hours after initial plating.
Assessment of Cell Monolayer Integrity: Medium was removed from the reservoir and each Transwell insert and replaced with prewarmed fresh culture medium. Transepithelial electrical resistance (TEER) across the monolayer was measured using Millicell Epithelial Volt-Ohm measuring system (Millipore, USA). The Plate was returned to the incubator once the measurement was done. The TEER value was calculated according to the following equation: […]
Preparation of Solutions: 2 mM stock solutions in DMSO of control compounds were prepared and diluted with HBSS (10 mM HEPES, pH 7.4) to get 10 μM working solution. 0.2 mM stock solutions of test compounds in DMSO were prepared and diluted with HBSS (10 mM HEPES, pH 7.4 with 0.5% BSA) to get 1 μM working solution. Metoprolol, erythromycin and cimetidine were used as control compounds.
The Caco-2 plate was removed from the incubator. The monolayer was washed twice with pre-warmed HBSS (10 mM HEPES, pH 7.4). The plate was incubated at 37° C. for 30 minutes. To determine the rate of drug transport in the apical to basolateral direction, 125 μL of the working solution was added to the Transwell insert (apical compartment). A 50 μL sample was transferred immediately from the apical compartment to 200 μL of acetonitrile containing IS (100 nM alprazolam, 200 nM Caffeine and 100 nM tolbutamide) in a new 96-well plate as the initial donor sample (A-B) and it was vortexed at 1000 rpm for 10 minutes. The wells in the receiver plate (basolateral compartment) were filled with 235 μL of transport buffer. To determine the rate of drug transport in the basolateral to apical direction, 285 μL of the working solution were added to the receiver plate wells (basolateral compartment). A 50 μL sample was transferred immediately from the basolateral compartment to 200 μL of acetonitrile containing IS (100 nM alprazolam, 200 nM Caffeine and 100 nM tolbutamide) in a new 96-well plate as the initial donor sample (B-A) and it was vortexed at 1000 rpm for 10 minutes. The Transwell insert (apical compartment) was filled with 75 μL of transport buffer. The apical to basolateral direction and the basolateral to apical direction need to be done at the same time. The plates were incubated at 37° C. for 2 hours. At the end of the incubation, 50 μL samples from donor sides (apical compartment for Ap→Bl flux, and basolateral compartment for B1→Ap) and receiver sides (basolateral compartment for Ap→Bl flux, and apical compartment for B1→Ap) were transferred to wells of a new 96-well plate, followed by the addition of 4 volume of acetonitrile containing IS (100 nM alprazolam, 200 nM Caffeine and 100 nM tolbutamide). Samples were vortexed for 10 minutes, 50 μL samples were transferred to wells of a new 96-well plate, followed by the addition of 50 μL Hepes and 200 μL IS. All samples were vortexed for 10 minutes, and then centrifuged at 3,220 g for 40 minutes. An aliquot of 150 μL of the supernatant was mixed with an appropriate volume of ultra-pure water before LC-MS/MS analysis.
Apparent permeability (Papp) can be calculated for drug transport assays using the following equation: […]
Papp is apparent permeability (cm/s×10^−6);
Papp (B-A) indicates the apparent permeability coefficient in basolateral to apical direction, and
Papp (A-B) indicates the apparent permeability coefficient in apical to basolateral direction.
On the technique in general: Passage across Caco-2 layers is used to estimate intestinal permeability.

Each structure is given as a SMILES string. Bounds are passed on as bounds.

Chain of CutC from Proteus mirabilis (B4EYG1 entry or part of it): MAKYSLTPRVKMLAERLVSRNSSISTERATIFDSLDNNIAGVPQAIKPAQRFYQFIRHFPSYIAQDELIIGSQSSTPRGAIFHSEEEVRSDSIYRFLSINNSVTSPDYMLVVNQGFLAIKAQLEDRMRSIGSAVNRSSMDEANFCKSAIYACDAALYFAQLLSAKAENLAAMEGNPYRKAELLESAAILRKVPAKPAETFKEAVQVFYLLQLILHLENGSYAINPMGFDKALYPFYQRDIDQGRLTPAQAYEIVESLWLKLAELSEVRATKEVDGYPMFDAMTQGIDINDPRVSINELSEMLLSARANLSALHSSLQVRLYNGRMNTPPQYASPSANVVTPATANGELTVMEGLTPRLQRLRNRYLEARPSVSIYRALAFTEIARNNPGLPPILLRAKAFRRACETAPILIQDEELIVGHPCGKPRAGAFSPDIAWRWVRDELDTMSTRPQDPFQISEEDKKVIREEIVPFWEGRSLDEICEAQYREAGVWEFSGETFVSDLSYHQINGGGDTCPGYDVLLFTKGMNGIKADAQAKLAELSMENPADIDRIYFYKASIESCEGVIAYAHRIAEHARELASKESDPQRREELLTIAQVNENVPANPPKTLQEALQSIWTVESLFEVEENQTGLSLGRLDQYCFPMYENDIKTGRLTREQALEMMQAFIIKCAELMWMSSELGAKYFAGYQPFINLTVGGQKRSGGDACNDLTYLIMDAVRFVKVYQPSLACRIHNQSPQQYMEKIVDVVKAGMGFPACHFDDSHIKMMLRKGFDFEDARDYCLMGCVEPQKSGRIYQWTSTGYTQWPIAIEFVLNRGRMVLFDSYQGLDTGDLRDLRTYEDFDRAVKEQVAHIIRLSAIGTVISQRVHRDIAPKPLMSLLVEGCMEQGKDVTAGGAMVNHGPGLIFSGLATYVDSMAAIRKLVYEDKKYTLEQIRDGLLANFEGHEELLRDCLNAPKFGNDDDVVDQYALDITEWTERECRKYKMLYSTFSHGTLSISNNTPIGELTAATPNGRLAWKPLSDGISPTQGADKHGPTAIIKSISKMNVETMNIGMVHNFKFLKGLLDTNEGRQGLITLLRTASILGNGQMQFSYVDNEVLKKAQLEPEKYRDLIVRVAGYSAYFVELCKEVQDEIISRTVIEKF
Chain of CutC from Proteus mirabilis (B4EYG0 entry or part of it, further chain): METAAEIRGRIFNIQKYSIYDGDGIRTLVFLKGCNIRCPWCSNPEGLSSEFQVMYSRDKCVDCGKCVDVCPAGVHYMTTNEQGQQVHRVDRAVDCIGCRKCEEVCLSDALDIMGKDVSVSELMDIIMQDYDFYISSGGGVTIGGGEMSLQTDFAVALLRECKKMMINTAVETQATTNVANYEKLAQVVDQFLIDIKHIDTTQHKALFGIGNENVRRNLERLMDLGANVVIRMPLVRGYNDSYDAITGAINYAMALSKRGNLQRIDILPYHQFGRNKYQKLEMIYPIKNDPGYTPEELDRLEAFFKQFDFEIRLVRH

What is called IC50 is the concentration that inhibits the measured activity by half. As usually defined, the Cmax is the maximum level reached in the sampled fluid or tissue. Take `CC(=O)OC[C@@H]1O[C@H](OCC[N+](C)(C)CCl)[C@@H](OC(C)=O)[C@H](OC(C)=O)[C@H]1OC(C)=O` (stereo in doubt) [Compound 78, N-(chloromethyl)-N,N-dimethyl-2-(((2S,3S,4R,5S,6S)-3,4,5-triacetoxy-6-(acetoxymethyl)tetrahydro-2H-pyran-2-yl)oxy)ethan-1-aminium Iodide]: the IC50 is no less than 10000 nM in series [1] and 390 nM in series [2]. The peak concentration (Cmax) in the series “in vivo” (iv, 1 mg/kg) was 6 nM.

For orientation: bioavailability means the share of a dose that reaches the circulation, judged against a reference dose that is usually intravenous. A high value points to good availability. As a reminder, the Papp A→B is the apparent permeability from the apical to the basolateral side of a cell layer. One may read the Papp B→A as the apparent permeability from the basolateral to the apical side of a cell layer. Turning to `CC(=O)OCC1OC(OCC[N+](C)(C)CF)C(OC(C)=O)C(OC(C)=O)C1OC(C)=O.[I-]` (stereo in doubt) [Compound 79, N-(fluoromethyl)-N,N-dimethyl-2-(((2S,3S,4R,5S,6S)-3,4,5-triacetoxy-6-(acetoxymethyl)tetrahydro-2H-pyran-2-yl)oxy)ethan-1-aminium Iodide], the Cmax in the series “in vivo” (iv, 1 mg/kg) worked out at 13600 nM. For the same compound, in “in vivo” (po, 10 mg/kg), the “% F” value is 1.60%, the Cmax was found to be 260 nM and the bioavailability turned out to be 2.16%. Moreover, the concentration in series [3] peaked (Cmax) at 5 nM. Further, in series [4], the Papp A→B at 2 h, 1 µM was 0.214 ×10⁻⁶ cm/s and the Papp B→A at 2 h, 1 µM was 0.255 ×10⁻⁶ cm/s.

As to `CC(=O)OC[C@@H]1O[C@H](OCC[N+](C)(C)CF)[C@@H](OC(C)=O)[C@H](OC(C)=O)[C@H]1OC(C)=O` (stereo in doubt) [Compound 79, N-(fluoromethyl)-N,N-dimethyl-2-(((2S,3S,4R,5S,6S)-3,4,5-triacetoxy-6-(acetoxymethyl)tetrahydro-2H-pyran-2-yl)oxy)ethan-1-aminium Iodide], the IC50 in series [1] is no less than 10000 nM; in series [2] it was 1170 nM. Further, the Cmax in “in vivo” (iv, 1 mg/kg) was 1 nM; in “in vivo” (po, 10 mg/kg), 50 nM.

These data come from patent US20220041641A1, “QUATERNARY AMMONIUM SALTS AS INHIBITORS OF TRIMETHYLAMINE PRODUCTION” (Senda Biosciences, Inc., priority 2018, published 2022).
